Read-outs that look alike come from different tables or passages of the source.
Tests used:
[1] = tested on: Candida haemulonii complex; test: Biofilm-growing cells, overall across isolates; assay type: cell-based; conditions: geometric mean across strains, values marked * do not include LIP Ch4 (>512)
Outline: (§1)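 Biofilms formed from 10^6 yeast cells in Sabouraud-dextrose broth, 48 h at 37 °C, then washed and exposed to compounds for a further 48 h at 37 °C. Metabolic activity read by XTT reduction; bMIC is the lowest concentration giving 50% inhibition versus compound-free wells.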

C. haemulonii complex = test: Planktonic growth, overall across all nine isolates; assay type: cell-based, Candida haemulonii complex; conditions: geometric mean across all nine strains; for MIC: in μM, read-out: Overall GM-MIC
Outline: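 Clinical isolates (nail, blood, urine) grown 48 h at 37°C in Sabouraud-dextrose, then tested by CLSI M27-A3 broth microdilution in RPMI 1640 over 0.0625-32 mg/L, 48 h at 37°C. MIC is the lowest concentration with no visible growth; geometric mean MIC calculated across all isolates.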

[2] = tested on: Candida haemulonii var. vulnera; test: Biofilm-growing cells, XTT assay, bMIC; assay type: cell-based; conditions: for GM-bMIC: geometric mean, C. haemulonii var. vulnera isolates; for bMIC: mature biofilm, 48 h, 50% inhibition of metabolic activity
Outline: as §1

Candida duobushaemulonii [3] = test: Biofilm-growing cells, XTT assay, bMIC; assay type: cell-based; conditions: for GM-bMIC: geometric mean, C. duobushaemulonii isolates; for bMIC: mature biofilm, 48 h, 50% inhibition of metabolic activity
Outline: as §1

Candida haemulonii [4] = test: Biofilm-growing cells, XTT assay, bMIC; assay type: cell-based; conditions: for GM-bMIC: geometric mean, C. haemulonii isolates, values marked * do not include LIP Ch4 (>512); for bMIC: mature biofilm, 48 h, 50% inhibition of metabolic activity
Outline: as §1

[5] = tested on: Candida haemulonii var. vulnera; test: Planktonic growth, broth microdilution (CLSI M27-A3), MIC; assay type: cell-based; conditions: for GM-MIC: geometric mean of three C. haemulonii var. vulnera isolates; for MIC: planktonic, 48 h, 37°C
Outline: (§2)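 Isolates were precultured in Sabouraud-dextrose with shaking for 48 h at 37°C. Test agents were then serially diluted in RPMI 1640 (0.0625-32 mg/L) per CLSI M27-A3. Plates were incubated 48 h at 37°C and scored visually for the lowest growth-free concentration, with a geometric mean across isolates.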

Candida duobushaemulonii [6] = test: as above; assay type: cell-based; conditions: for GM-MIC: geometric mean of three C. duobushaemulonii isolates; for MIC: planktonic, 48 h, 37°C
Outline: as §2

Candida haemulonii [7] = test: as above; assay type: cell-based; conditions: for GM-MIC: geometric mean of three C. haemulonii isolates; for MIC: planktonic, 48 h, 37°C
Outline: as §2

A549 cells = test: Mammalian cell toxicity (MTT assay) and selectivity index; assay type: cell-based, Human
Outline: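 A549 cells were exposed to compounds (0.0313–512 μg/mL) in DMEM for 48 h at 37 °C, 5% CO2. Viability was measured by MTT (3 h, dark), with formazan dissolved in DMSO and read at 450 nm. CC50 was derived, and SI calculated as A549 CC50 divided by C. haemulonii complex GM-MIC.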

Compound | Overall GM-bMIC [1] | Overall GM-MIC (C. haemulonii complex) | MIC (C. haemulonii complex) | GM-bMIC [2] | bMIC ([2]; isolate LIP Ch5) | bMIC ([2]; isolate LIP Ch9) | bMIC ([2]; isolate LIP Ch13) | GM-bMIC (Candida duobushaemulonii [3]) | bMIC (Candida duobushaemulonii [3]; isolate LIP Ch1) | bMIC (Candida duobushaemulonii [3]; isolate LIP Ch6) | bMIC (Candida duobushaemulonii [3]; isolate LIP Ch8) | GM-bMIC (Candida haemulonii [4]) | bMIC (Candida haemulonii [4]; isolate LIP Ch4) | bMIC (Candida haemulonii [4]; isolate LIP Ch7) | bMIC (Candida haemulonii [4]; isolate LIP Ch14) | GM-MIC [5] | MIC ([5]; isolate LIP Ch5) | MIC ([5]; isolate LIP Ch9) | MIC ([5]; isolate LIP Ch11) | GM-MIC (Candida duobushaemulonii [6]) | other results
{[Mn(3,6,9-tdda)(phen)2].3H2O.EtOH}n [compound 14] | 11.76 mg/L | 2.33 µg/mL | 3.15 µM | 8 mg/L | 16 mg/L | 4 mg/L | 8 mg/L | 10.08 mg/L | 16 mg/L | 4 mg/L | 16 mg/L | 20.16 mg/L | 512 mg/L | 4 mg/L | 4 mg/L | 2 µg/mL | 2 µg/mL | 2 µg/mL | 2 µg/mL | 3.17 µg/mL | MIC (Candida duobushaemulonii [6]; isolate LIP Ch1): 4 µg/mL; MIC (Candida duobushaemulonii [6]; isolate LIP Ch6): 4 µg/mL; MIC (Candida duobushaemulonii [6]; isolate LIP Ch8): 2 µg/mL; GM-MIC (Candida haemulonii [7]): 2 µg/mL; MIC (Candida haemulonii [7]; isolate LIP Ch4): 2 µg/mL; MIC (Candida haemulonii [7]; isolate LIP Ch7): 2 µg/mL; MIC (Candida haemulonii [7]; isolate LIP Ch12): 2 µg/mL; A549 (CC50) (A549 cells; MTT, 48 h incubation): 261.67 µg/mL
CCO.O.O.O.O.O.O.O=C([O-])c1cccc(C(=O)[O-])c1.[Cu+2].c1cnc2c(c1)ccc1cccnc12.c1cnc2c(c1)ccc1cccnc12 [compound 3, [Cu(isoph)(phen)2].6H2O.EtOH] | 14.81 mg/L | 6.86 µg/mL | 9.21 µM | 12.70 mg/L | 16 mg/L | 8 mg/L | 16 mg/L | 12.70 mg/L | 32 mg/L | 8 mg/L | 8 mg/L | 20.16 mg/L | 32 mg/L | 16 mg/L | 16 mg/L | 6.35 µg/mL | 4 µg/mL | 8 µg/mL | 8 µg/mL | 5.04 µg/mL | Overall GM-bMIC ([1]; in μM): 19.95 µM; MIC (Candida duobushaemulonii [6]; isolate LIP Ch1): 4 µg/mL; MIC (Candida duobushaemulonii [6]; isolate LIP Ch6): 8 µg/mL; MIC (Candida duobushaemulonii [6]; isolate LIP Ch8): 4 µg/mL; GM-MIC (Candida haemulonii [7]): 10.08 µg/mL; MIC (Candida haemulonii [7]; isolate LIP Ch4): 8 µg/mL; MIC (Candida haemulonii [7]; isolate LIP Ch7): 8 µg/mL; MIC (Candida haemulonii [7]; isolate LIP Ch12): 16 µg/mL; A549 (CC50) (A549 cells; MTT, 48 h incubation): 0.89 µg/mL
CCO.O=C([O-])CCCCCCC(=O)[O-].[Cu+2].[Cu+2].[O-][Cl+3]([O-])([O-])[O-].[O-][Cl+3]([O-])([O-])[O-].c1cnc2c(c1)ccc1cccnc12.c1cnc2c(c1)ccc1cccnc12.c1cnc2c(c1)ccc1cccnc12.c1cnc2c(c1)ccc1cccnc12 [compound 5, [Cu2(oda)(phen)4](ClO4)2.2.76H2O.EtOH] | 17.28 mg/L | 9.33 µg/mL | 7.09 µM | 16 mg/L | 32 mg/L | 8 mg/L | 16 mg/L | 16 mg/L | 32 mg/L | 8 mg/L | 16 mg/L | 20.16 mg/L | 32 mg/L | 16 mg/L | 16 mg/L | 10.08 µg/mL | 8 µg/mL | 16 µg/mL | 8 µg/mL | 8 µg/mL | Overall GM-bMIC ([1]; in μM): 13.19 µM; MIC (Candida duobushaemulonii [6]; isolate LIP Ch1): 8 µg/mL; MIC (Candida duobushaemulonii [6]; isolate LIP Ch6): 8 µg/mL; MIC (Candida duobushaemulonii [6]; isolate LIP Ch8): 8 µg/mL; GM-MIC (Candida haemulonii [7]): 10.08 µg/mL; MIC (Candida haemulonii [7]; isolate LIP Ch4): 8 µg/mL; MIC (Candida haemulonii [7]; isolate LIP Ch7): 8 µg/mL; MIC (Candida haemulonii [7]; isolate LIP Ch12): 16 µg/mL; A549 (CC50) (A549 cells; MTT, 48 h incubation): 0.98 µg/mL
O.O.O.O.O=C1C(=O)c2cccnc2-c2ncccc21.O=C1C(=O)c2cccnc2-c2ncccc21.O=C1C(=O)c2cccnc2-c2ncccc21.[Cu+2].[O-][Cl+3]([O-])([O-])[O-].[O-][Cl+3]([O-])([O-])[O-] [compound 6, [Cu(phendione)3](ClO4)2.4H2O] | 27.43 mg/L | 9.33 µg/mL | 9.65 µM | 32 mg/L | 32 mg/L | 32 mg/L | 32 mg/L | 12.70 mg/L | 16 mg/L | 16 mg/L | 8 mg/L | 50.80 mg/L | 256 mg/L | 32 mg/L | 16 mg/L | 6.35 µg/mL | 4 µg/mL | 8 µg/mL | 8 µg/mL | 8 µg/mL | Overall GM-bMIC ([1]; in μM): 28.42 µM; MIC (Candida duobushaemulonii [6]; isolate LIP Ch1): 8 µg/mL; MIC (Candida duobushaemulonii [6]; isolate LIP Ch6): 16 µg/mL; MIC (Candida duobushaemulonii [6]; isolate LIP Ch8): 4 µg/mL; GM-MIC (Candida haemulonii [7]): 16 µg/mL; MIC (Candida haemulonii [7]; isolate LIP Ch4): 16 µg/mL; MIC (Candida haemulonii [7]; isolate LIP Ch7): 16 µg/mL; MIC (Candida haemulonii [7]; isolate LIP Ch12): 16 µg/mL; A549 (CC50) (A549 cells; MTT, 48 h incubation): 0.68 µg/mL
O.O.O=C([O-])c1ccccc1C(=O)[O-].[Mn+2].c1cnc2c(c1)ccc1cccnc12 [compound 8, [Mn(ph)(phen)(H2O)2]] | 11.31 mg/L | 4.67 µg/mL | 10.71 µM | 16 mg/L | 32 mg/L | 16 mg/L | 8 mg/L | 10.08 mg/L | 16 mg/L | 8 mg/L | 8 mg/L | 8^* mg/L | >512 mg/L | 4 mg/L | 16 mg/L | 4 µg/mL | 4 µg/mL | 4 µg/mL | 4 µg/mL | 5.04 µg/mL | Overall GM-bMIC ([1]; in μM): 25.98 µM; MIC (Candida duobushaemulonii [6]; isolate LIP Ch1): 8 µg/mL; MIC (Candida duobushaemulonii [6]; isolate LIP Ch6): 4 µg/mL; MIC (Candida duobushaemulonii [6]; isolate LIP Ch8): 4 µg/mL; GM-MIC (Candida haemulonii [7]): 5.04 µg/mL; MIC (Candida haemulonii [7]; isolate LIP Ch4): 8 µg/mL; MIC (Candida haemulonii [7]; isolate LIP Ch7): 4 µg/mL; MIC (Candida haemulonii [7]; isolate LIP Ch12): 4 µg/mL; A549 (CC50) (A549 cells): 234.51 µg/mL
